According to ChEMBL document CHEMBL6096652, “Design, synthesis and anti-tumor evaluation of novel pyrimidine and quinazoline analogues” (Eur J Med Chem, 2025):
Active and inactive are the calls of the source. The rule behind the calls is not given here.

Assays:
B16-F10 [1] = assay: Antiproliferative activity against mouse B16-F10 cells incubated for 48 hrs by MTT assay; format: functional, cell-based; settings: B16-F10, 48 h
A549 = assay: Antiproliferative activity against human A549 cells incubated for 48 hrs by MTT assay; format: functional, cell-based; settings: A549, 48 h
HepG2 = assay: Antiproliferative activity against human HepG2 cells incubated for 48 hrs by MTT assay; format: functional, cell-based; settings: HepG2, 48 h
MCF7 = assay: Antiproliferative activity against human MCF7 cells incubated for 48 hrs by MTT assay; format: functional, cell-based; settings: MCF7, 48 h
Tubulin (Homo sapiens) [2] = target: T1, Tubulin (Homo sapiens) (UniProt P68371+Q9H4B7+P0DPH7+P68366+Q13509+Q71U36+P04350+Q3ZCM7+P07437+P68363+Q9BQE3+Q6PEY2+Q13885+Q9BVA1+Q9BUF5); assay: (§1) Inhibition of tubulin polymerization (unknown origin) measured upto 20 mins by absorbance based assay; format: protein-complex assay
Tubulin = assay: as §1; format: protein-complex assay, Homo sapiens
Tubulin (Homo sapiens) [3] = target: T1, Tubulin (Homo sapiens); assay: Disruption of microtubule polymerization in human HepG2 cells at 100 nM incubated for 12 hrs by immunofluorescence based analysis; format: cell-based
B16-F10 [4] = assay: Induction of cell cycle arrest in mouse B16-F10 cells assessed as accumulation at G1 phase at 50 nM incubated for 24 hrs by flow cytometry (reference value: 57.91 %); format: functional
B16-F10 [5] = assay: Induction of cell cycle arrest in mouse B16-F10 cells assessed as accumulation at S phase at 50 nM incubated for 24 hrs by flow cytometry (reference value: 37.84 %); format: functional
B16-F10 [6] = assay: Induction of cell cycle arrest in mouse B16-F10 cells assessed as accumulation at G2/M phase at 50 nM incubated for 24 hrs by flow cytometry (reference value: 4.25 %); format: functional
B16-F10 [7] = assay: Induction of cell cycle arrest in mouse B16-F10 cells assessed as accumulation at G1 phase at 100 nM incubated for 24 hrs by flow cytometry (reference value: 57.91 %); format: functional
B16-F10 [8] = assay: Induction of cell cycle arrest in mouse B16-F10 cells assessed as accumulation at S phase at 100 nM incubated for 24 hrs by flow cytometry (reference value: 37.84 %); format: functional
B16-F10 [9] = assay: Induction of cell cycle arrest in mouse B16-F10 cells assessed as accumulation at G2/M phase at 100 nM incubated for 24 hrs by flow cytometry (reference value: 4.25 %); format: functional
B16-F10 [10] = assay: Induction of cell cycle arrest in mouse B16-F10 cells assessed as accumulation at G1 phase at 200 nM incubated for 24 hrs by flow cytometry (reference value: 57.91 %); format: functional
B16-F10 [11] = assay: Induction of cell cycle arrest in mouse B16-F10 cells assessed as accumulation at S phase at 200 nM incubated for 24 hrs by flow cytometry (reference value: 37.84 %); format: functional
B16-F10 [12] = assay: Induction of cell cycle arrest in mouse B16-F10 cells assessed as accumulation at G2/M phase at 200 nM incubated for 24 hrs by flow cytometry (reference value: 4.25 %); format: functional
B16-F10 [13] = assay: Induction of cell cycle arrest in mouse B16-F10 cells assessed as accumulation at G2/M phase incubated for 24 hrs by flow cytometry; format: functional, cell-based
B16-F10 [14] = assay: Induction of apoptosis in mouse B16-F10 cells assessed as viable cells at 50 nM incubated for 24 hrs by Annexin V-PE/7-AAD staining based flow cytometry (reference value: 94.5 %); format: functional; settings: read-out: Activity
B16-F10 [15] = assay: Induction of apoptosis in mouse B16-F10 cells assessed as early apoptotic cells at 50 nM incubated for 24 hrs by Annexin V-PE/7-AAD staining based flow cytometry (reference value: 1.04 %); format: functional
B16-F10 [16] = assay: Induction of apoptosis in mouse B16-F10 cells assessed as late apoptotic cells at 50 nM incubated for 24 hrs by Annexin V-PE/7-AAD staining based flow cytometry (reference value: 4.13 %); format: functional
B16-F10 [17] = assay: Induction of apoptosis in mouse B16-F10 cells assessed as necrotic cells at 50 nM incubated for 24 hrs by Annexin V-PE/7-AAD staining based flow cytometry (reference value: 0.33 %); format: functional
B16-F10 [18] = assay: Induction of apoptosis in mouse B16-F10 cells assessed as total apoptotic cells at 50 nM incubated for 24 hrs by Annexin V-PE/7-AAD staining based flow cytometry (reference value: 5.17 %); format: functional
B16-F10 [19] = assay: Induction of apoptosis in mouse B16-F10 cells assessed as viable cells at 100 nM incubated for 24 hrs by Annexin V-PE/7-AAD staining based flow cytometry (reference value: 94.5 %); format: functional; settings: read-out: Activity
B16-F10 [20] = assay: Induction of apoptosis in mouse B16-F10 cells assessed as early apoptotic cells at 100 nM incubated for 24 hrs by Annexin V-PE/7-AAD staining based flow cytometry (reference value: 1.04 %); format: functional
B16-F10 [21] = assay: Induction of apoptosis in mouse B16-F10 cells assessed as late apoptotic cells at 100 nM incubated for 24 hrs by Annexin V-PE/7-AAD staining based flow cytometry (reference value: 4.13 %); format: functional
B16-F10 [22] = assay: Induction of apoptosis in mouse B16-F10 cells assessed as necrotic cells at 100 nM incubated for 24 hrs by Annexin V-PE/7-AAD staining based flow cytometry (reference value: 0.33 %); format: functional
B16-F10 [23] = assay: Induction of apoptosis in mouse B16-F10 cells assessed as total apoptotic cells at 100 nM incubated for 24 hrs by Annexin V-PE/7-AAD staining based flow cytometry (reference value: 5.17 %); format: functional
B16-F10 [24] = assay: Induction of apoptosis in mouse B16-F10 cells assessed as viable cells at 200 nM incubated for 24 hrs by Annexin V-PE/7-AAD staining based flow cytometry (reference value: 94.5 %); format: functional; settings: read-out: Activity
B16-F10 [25] = assay: Induction of apoptosis in mouse B16-F10 cells assessed as early apoptotic cells at 200 nM incubated for 24 hrs by Annexin V-PE/7-AAD staining based flow cytometry (reference value: 1.04 %); format: functional
B16-F10 [26] = assay: Induction of apoptosis in mouse B16-F10 cells assessed as late apoptotic cells at 200 nM incubated for 24 hrs by Annexin V-PE/7-AAD staining based flow cytometry (reference value: 4.13 %); format: functional
B16-F10 [27] = assay: Induction of apoptosis in mouse B16-F10 cells assessed as necrotic cells at 200 nM incubated for 24 hrs by Annexin V-PE/7-AAD staining based flow cytometry (reference value: 0.33 %); format: functional
B16-F10 [28] = assay: Induction of apoptosis in mouse B16-F10 cells assessed as total apoptotic cells at 200 nM incubated for 24 hrs by Annexin V-PE/7-AAD staining based flow cytometry (reference value: 5.17 %); format: functional
B16-F10 [29] = assay: Inhibition of cell migration in mouse B16-F10 cells assessed as recovery of scratch area at 50 nM incubated for 24 hrs by wound healing assay (reference value: 72.97 %); format: functional; parameters: scale not given: the % may be the effect or the level left
B16-F10 [30] = assay: Inhibition of cell migration in mouse B16-F10 cells assessed as recovery of scratch area at 100 nM incubated for 24 hrs by wound healing assay (reference value: 72.97 %); format: functional; parameters: scale not given: the % may be the effect or the level left
B16-F10 [31] = assay: Inhibition of cell migration in mouse B16-F10 cells assessed as recovery of scratch area at 200 nM incubated for 24 hrs by wound healing assay (reference value: 72.97 %); format: functional; parameters: scale not given: the % may be the effect or the level left
B16-F10 [32] = assay: Antitumor activity against mouse B16-F10 cells implanted in C57BL/6 mouse assessed as reduction in tumor volume at 15 mg/kg measured after 10 days; format: functional, organism-based; settings: time 10.0 day
B16-F10 [33] = assay: Antitumor activity against mouse B16-F10 cells implanted in C57BL/6 mouse at 15 mg/kg measured after 10 days relative to control; format: functional; settings: B16-F10, 240 h, time 10 day, read-out: TGI
B16-F10 [34] = assay: Antitumor activity against mouse B16-F10 cells implanted in C57BL/6 mouse at 30 mg/kg measured after 10 days relative to control; format: functional; settings: B16-F10, 240 h, time 10 day, read-out: TGI
[35] = Toxicity in C57BL/6 mouse implanted with mouse B16-F10 cells assessed as body weight change at 15 to 30 mg/kg measured after 10 days; format: organism-based; settings: in vivo, 240 h, dose 15-30 mg/kg, time 10 day
[36] = Toxicity in C57BL/6 mouse implanted with mouse B16-F10 cells assessed as adverse effects at 15 to 30 mg/kg measured after 10 days; format: organism-based; settings: in vivo, 240 h, dose 15-30 mg/kg, time 10 day

Question: Which results are given for `COc1cc(Nc2ccnc(-c3cccc4c3ccn4C)n2)cc(OC)c1OC`?
Answer: IC50 (B16-F10 [1]): 98 nM; IC50 (A549): 135 nM; IC50 (HepG2): 109 nM; IC50 (MCF7): 259 nM; inhibition (Tubulin (Homo sapiens) [2]): Dose-dependent-effect; IC50 (Tubulin): 22200 nM; Activity (Tubulin (Homo sapiens) [3]): Active; Activity (B16-F10 [4]): 51.86%; Activity (B16-F10 [5]): 32.53%; Activity (B16-F10 [6]): 15.61%; Activity (B16-F10 [7]): 11.76%; Activity (B16-F10 [8]): 23.18%; Activity (B16-F10 [9]): 65.06%; Activity (B16-F10 [10]): 5.91%; Activity (B16-F10 [11]): 11.67%; Activity (B16-F10 [12]): 82.41%; Activity (B16-F10 [13]): Dose-dependent-effect; viability at 0.05 µM (B16-F10 [14]): 88.3%; Activity (B16-F10 [15]): 1.71%; Activity (B16-F10 [16]): 8.25%; Activity (B16-F10 [17]): 1.7%; Activity (B16-F10 [18]): 9.96%; viability at 0.1 µM (B16-F10 [19]): 86%; Activity (B16-F10 [20]): 3.58%; Activity (B16-F10 [21]): 9.91%; Activity (B16-F10 [22]): 0.52%; Activity (B16-F10 [23]): 13.49%; viability at 0.2 µM (B16-F10 [24]): 77.4%; Activity (B16-F10 [25]): 3.4%; Activity (B16-F10 [26]): 18.8%; Activity (B16-F10 [27]): 0.36%; Activity (B16-F10 [28]): 22.2%; Activity (B16-F10 [29]): 69.89%; Activity (B16-F10 [30]): 37.37%; Activity (B16-F10 [31]): 22.38%; Activity (B16-F10 [32]): Active; inhibition in vivo at 15 mg/kg (B16-F10 [33]): 57.9%; inhibition in vivo at 30 mg/kg (B16-F10 [34]): 79.6%; Activity [35]: Non-toxic; Activity [36]: Non-toxic
